Where a name gives a salt, the structure may show the parent alone.
How the values were obtained:
[1] = molecular target: T1, human mu opioid receptor (MOR) (Homo sapiens, UniProt P35372); experiment: BRET assay measuring G protein activation, agonist activity at human MOR (transfected HEK-293T cells); type: cell-based; conditions: for MOR potency relative to analogs lacking substitution at position 2: dihalo-substituted core
T1 construct: expressed in transfected cells; host or cells: HEK-293T
Description: (§1) The diarylthiazepinamine carboxylic acids (9) were tested for agonist activity at the human mu opioid receptor (MOR) and delta opioid receptor (DOR) using bioluminescence resonance energy transfer (BRET) assays measuring G protein activation as previously described (Table 1) (Rives, M.-L. et al. 2012; Negri, A. et al. 2013).
(§2) Transfection. Human MOR cDNA was transfected alongside […] with RLuc8 inserted at position 91 (GαoB-RLuc8), Gβ1 (β1), and Gγ2 fused to the full-length mVenus at its N terminus (mVenus-γ2) into HEK-293T cells (5×10^6 cells/plate) in 10-cm dishes using PEI (Polysciences Inc.; Warrington, PA) in a 1:1 ratio diluted in Opti-MEM (Life Technologies Corp.; Grand Island, NY) to assay for G protein activation as described previously (Rives, M.-L. et al. 2012; Negri, A. et al. 2013). Cells were maintained in Dulbecco's Modified Eagle Medium (high glucose #11965; Life Technologies) supplemented with 10% FBS (Premium Select, Atlanta Biologicals; Atlanta, GA) and 100 U/mL penicillin and 100 μg/mL streptomycin (#15140, Life Technologies). After 24 hours the media was changed, and the experiment was performed 24 hours later (48 hours after transfection).
(§3) BRET. Transfected cells were dissociated and re-suspended in phosphate-buffered saline (PBS). Approximately 200,000 cells/well were added to a black-framed, white well 96-well plate (#60050; Perkin Elmer; Waltham, MA). The microplate was centrifuged and the cells were re-suspended in PBS. Then 5 μM of the luciferase substrate coelenterazine H was added to each well for 5 minutes. Following coelenterazine H addition, ligands were added and the BRET signal was measured at 5 minutes on a PHERAstar FS plate reader. Quantification of the BRET signal required calculating the ratio of the light emitted by the energy acceptor, mVenus (510-540 nm), over the light emitted by the energy donor, RLuc8 (485 nm). […] Dose response curves were fit using a three-parameter logistics equation in GraphPad Prism 6.
The additional diarylthiazepinamine carboxylic acids (9i, 9j, 9k, and 91) were tested for agonist activity at the human mu opioid receptor (MOR) using bioluminescence resonance energy transfer (BRET) assays measuring G protein activation (Table 2) as previously described (Rives, M.-L. et al. 2012; Negri, A. et al. 2013; Example 2 of the present application).

[2] = molecular target: T2, human delta opioid receptor (DOR) (Homo sapiens, UniProt P41143); experiment: BRET assay measuring G protein activation, agonist activity at human DOR; type: cell-based
T2 construct: expressed in transfected cells
Description: as §1, §2, §3

male C57BL/6 mice = experiment: Analgesic activity in hot plate assay; type: in vivo, mouse; conditions: for ED50: Mus musculus, sc, hot plate 55° C., male C57BL/6 mice; for Analgesic activity in the mouse hot plate assay: much higher potency than tianeptine
Description: Analgesic Activity in Hot Plate Assay. Male C57BL/6 mice were timed for latency to jump on a hot-plate apparatus set to 55° C., using a 30 s cutoff to prevent tissue damage. Following a baseline test, animals were injected subcutaneously (s.c.) with escalating doses of drug and tested at […] (time of maximal effect). Dose-response curves were fit via nonlinear regression using GraphPad Prism (La Jolla, CA).

[3] = for Solubility, 100 mM HCl, pH 1 (mg/mL): pH 1, 25° C.
Description: Solubility Determination. Test compounds (4 mg) were added to 200 μL of one of the tested aqueous solutions (hereinafter—buffer): 100 mM aqueous HCl (pH 1) or 100 mM Na-phosphate buffer (pH 7). The obtained suspensions/solutions with the theoretical concentration of 20 mg/mL were further allowed to equilibrate at 25° C. on a thermostatic orbital shaker for 24 hours and then centrifuged at 6000 rpm for 4 minutes and filtered through HTS filter plates using a vacuum manifold. In parallel, compound dilutions in 50% acetonitrile/HCl and 30% acetonitrile/Na-phosphate buffer mixes were prepared to theoretical concentrations of 0 mg/mL (blank), 0.1 mg/mL, 0.2 mg/mL, and 0.4 mg/mL in duplicates to generate calibration curves falling within the optimum UV absorption range. The filtrates of test compounds were diluted 100-fold with acetonitrile-buffer mixtures before measuring. The filtered supernatant test samples were transferred to 96-well plates and measured for absorbance in the 200-550 nm range with 5 nm step increment. The concentrations of compounds in supernatants were calculated using the measured absorbance and the previously determined calibration curve. Proper absorbance wavelengths for calculations were selected for each compound manually based on absorbance maxima (absolute absorbance unit values for the minimum and maximum concentration points within 0-2.5 OD range).

[4] = Solubility Determination (Method A), distilled water, stirred 24 h; type: physicochemical
Description: (§4) Solubility Determination (Method A). A quantity of the appropriate compound sufficient to saturate the resulting solution was added to distilled water (0.50 mL) and the mixture was stirred vigorously for 24 h at room temperature (20° C.). The mixture was then centrifuged for 3 min. at 21,000×g and the stir bar was carefully removed. The mixture was then centrifuged again for 5 min. at 21,000×g and the supernatant was carefully removed by syringe and passed through a […] syringe filter. An aliquot (300 μL) of the filtered supernatant was concentrated in vacuo and the mass of the residual solids determined in order to calculate the solubility.

[5] = Solubility Determination (Method B), distilled water, orbital shaker 2 h; type: physicochemical; conditions: neutral unbuffered water, vs iodotianeptine
Description: as §4, with “B).” for “A).”, “agitated on an orbital shaker” for “was stirred vigorously”, “2” for “24”, “centrifuged” for “centrifuged for 3 min. at 21,000×g and the stir bar was carefully removed. The mixture was then centrifuged again”

MOR = MOR (Homo sapiens, UniProt P35372); conditions: Gassaway, M. M. et al. 2014; cited from earlier work
DOR = DOR (Homo sapiens, UniProt P41143); conditions: Gassaway, M. M. et al. 2014; cited from earlier work
[6] = average of 2 independent trials

T1 sequence (P35372 whole entry): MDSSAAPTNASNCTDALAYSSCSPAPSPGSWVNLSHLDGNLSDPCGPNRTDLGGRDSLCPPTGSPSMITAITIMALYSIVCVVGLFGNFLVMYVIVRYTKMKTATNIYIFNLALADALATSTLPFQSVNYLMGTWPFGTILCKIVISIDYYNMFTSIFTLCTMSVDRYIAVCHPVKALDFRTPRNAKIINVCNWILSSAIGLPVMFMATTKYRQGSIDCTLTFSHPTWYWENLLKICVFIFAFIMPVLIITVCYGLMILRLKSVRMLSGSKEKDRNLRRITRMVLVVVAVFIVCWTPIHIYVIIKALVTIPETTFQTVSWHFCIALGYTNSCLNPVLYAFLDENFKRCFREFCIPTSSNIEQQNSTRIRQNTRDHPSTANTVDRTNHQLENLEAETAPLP
T2 sequence (P41143 whole entry): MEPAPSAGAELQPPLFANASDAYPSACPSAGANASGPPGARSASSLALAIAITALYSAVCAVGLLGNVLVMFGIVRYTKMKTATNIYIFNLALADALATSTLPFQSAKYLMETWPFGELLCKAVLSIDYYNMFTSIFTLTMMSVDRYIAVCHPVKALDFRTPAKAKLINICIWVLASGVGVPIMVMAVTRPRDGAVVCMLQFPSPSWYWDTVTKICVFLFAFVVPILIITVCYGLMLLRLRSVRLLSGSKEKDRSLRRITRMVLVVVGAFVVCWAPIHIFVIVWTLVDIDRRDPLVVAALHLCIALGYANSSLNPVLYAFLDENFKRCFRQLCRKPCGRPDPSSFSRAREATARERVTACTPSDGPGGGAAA
MOR, sequence (P35372 whole entry): as the sequence (P35372 whole entry) above
DOR, sequence (P41143 whole entry): as the sequence (P41143 whole entry) above

CN1c2ccccc2C(NCCCCCCCC(=O)O)c2ccc(I)cc2S1(=O)=O (racemic) [Compound 9e, 8-((3-Iodo-6-methyl-5,5-dioxido-6,11-dihydrodibenzo[c,f][1,2]thiazopin-11-yl)amino) octanoic acid hydrochloride salt]
EC50 [1]: 24.2 ± 11 nM | EC50 [2]: 724 ± 99 nM

CN1c2ccccc2C(NCCCCCCCCCC(=O)O)c2ccc(I)cc2S1(=O)=O (racemic) [Compound 9g, 10-((3-Iodo-6-methyl-5,5-dioxido-6,11-dihydrodibenzo[c,f][1,2]thiazopin-11-yl)amino)decanoic acid hydrochloride salt]
EC50 [1]: 26.6 ± 1.8 nM | EC50 [2]: 262 ± 25 nM

CN1c2ccccc2C(NCCCCCCC(=O)O)c2cc(F)c(Br)cc2S1(=O)=O.Cl (stereo not drawn) [Compound 9b, 7-((3-Bromo-2-fluoro-6-methyl-5,5-dioxido-6,11-dihydrodibenzo[c,f][1,2]thiazopin-11-yl)amino) heptanoic acid hydrochloride salt]
MOR potency relative to analogs lacking substitution at position 2 [1]: equipotent or more potent | ED50 (male C57BL/6 mice): 5.1 mg/kg | Analgesic activity in the mouse hot plate assay (male C57BL/6 mice): potent analgesics | Solubility, 100 mM HCl, pH 1 (mg/mL) [3, 6]: 1.1 mg/mL | Solubility, 100 mM Na phosphate buffer, pH 7 (mg/mL) ([3]; pH 7, 25° C., average of 2 independent trials): 0.84 mg/mL | Fold more soluble than analogous monohalo counterpart ([4]; neutral unbuffered water, vs bromotianeptine): 2-3 fold | Aqueous Solubility (mg/mL @ 20° C.) ([4]; neutral water, room temperature (20° C.), Method A, average of 2 independent trials): 9.8 mg/mL

CSc1ccc2c(c1)S(=O)(=O)N(C)c1ccccc1C2NCCCCCCC(=O)O (stereo not drawn) [Compound 9c, 7-((6-Methyl-3-(methylthio)-5,5-dioxido-6,11-dihydrodibenzo[c,f][1,2]thiazopin-11-yl)amino)heptanoic acid]
Human DOR agonist type (partial / full agonist) [2]: partial agonist | DOR Emax relative to the control agonist DPDPE ([2]; FIG. 1): lesser Emax than the control agonist DPDPE

CN1c2ccccc2C(NCCCCCCC(=O)O)c2cc(Cl)c(Cl)cc2S1(=O)=O.Cl (stereo not drawn) [Compound 9i, 7-((2,3-dichloro-6-methyl-5,5-dioxido-6,11-dihydrodibenzo[c,f][1,2]thiazopin-11-yl)amino) heptanoic acid hydrochloride salt]
MOR potency relative to analogs lacking substitution at position 2 [1]: equipotent or more potent

CN1c2ccccc2C(NCCCCCCC(=O)O)c2cc(F)c(Cl)cc2S1(=O)=O.Cl (stereo not drawn) [Compound 9j, 7-((3-chloro-2-fluoro-6-methyl-5,5-dioxido-6,11-dihydrodibenzo[c,f][1,2]thiazopin-11-yl)amino) heptanoic acid hydrochloride salt]
MOR potency relative to analogs lacking substitution at position 2 [1]: equipotent or more potent | Fold more soluble than monohalo counterpart at pH 1 ([3]; pH 1): 8 fold

CN1c2ccccc2C(NCCCCCCC(=O)O)c2cc(F)c(I)cc2S1(=O)=O.Cl (stereo not drawn) [Compound 9k, 7-((2-fluoro-3-iodo-6-methyl-5,5-dioxido-6,11-dihydrodibenzo[c,f][1,2]thiazopin-11-yl)amino)heptanoic acid hydrochloride salt]
Fold more soluble than analogous monohalo counterpart [5]: 2-3 fold | MOR potency relative to analogs lacking substitution at position 2 [1]: equipotent or more potent | ED50 (male C57BL/6 mice): 1.7 mg/kg | Analgesic activity in the mouse hot plate assay (male C57BL/6 mice): potent analgesics

CN1c2ccccc2C(NCCCCC(=O)O)c2cc(F)c(Br)cc2S1(=O)=O.Cl (stereo not drawn) [Compound 91, 5-((3-bromo-2-fluoro-6-methyl-5,5-dioxido-6,11-dihydrodibenzo[c,f][1,2]thiazepin-11-yl)amino) pentanoic acid hydrochloride salt]
MOR potency relative to analogs lacking substitution at position 2 [1]: equipotent or more potent

CCOC(=O)CCCCCCNC1c2ccccc2N(C)S(=O)(=O)c2cc(SC)ccc21 (stereo not drawn) [Ester Analog of 9c, Ethyl 7-((6-methyl-3-(methylthio)-5,5-dioxido-6,11-dihydrodibenzo[c,f][1,2]thiazepin-11-yl)amino)heptanoate]
Human DOR agonist type (partial / full agonist) [2]: partial agonist

CN1c2ccccc2C(NCCCCCCC(=O)[O-])c2ccc(Cl)cc2S1(=O)=O.[Na+] (stereo not drawn) [Tianeptine (Na salt), Tianeptine, reference compound]
ED50 (male C57BL/6 mice): 15 mg/kg

CN1c2ccccc2C(NCCCCCCC(=O)O)c2ccc(Cl)cc2S1(=O)=O (stereo not drawn) [Tianeptine, tianeptine]
Agonist activity at the MOR (reported) (MOR): full agonist | Agonist activity at the DOR (reported) (DOR): low potency agonist activity

CN1c2ccccc2C(NCCCCCCC(=O)O)c2ccc(Br)cc2S1(=O)=O.Cl (stereo not drawn) [bromotianeptine, reference compound]
Solubility, 100 mM HCl, pH 1 (mg/mL) [3, 6]: <0.1 mg/mL

CN1c2ccccc2C(NCCCCCCC(=O)O)c2ccc(I)cc2S1(=O)=O.Cl (stereo not drawn) [iodotianeptine, reference compound]
Solubility, 100 mM HCl, pH 1 (mg/mL) [3, 6]: <0.1 mg/mL
